Experimental data published in ChEMBL document CHEMBL1135318 (Bioorg Med Chem Lett, 2002).

Experiments:
[1] = target: T1, Muscarinic acetylcholine receptor M2 (Homo sapiens, UniProt P08172); assay: In vitro affinity for muscarinic M2 receptor.
T1 sequence (P08172 whole entry): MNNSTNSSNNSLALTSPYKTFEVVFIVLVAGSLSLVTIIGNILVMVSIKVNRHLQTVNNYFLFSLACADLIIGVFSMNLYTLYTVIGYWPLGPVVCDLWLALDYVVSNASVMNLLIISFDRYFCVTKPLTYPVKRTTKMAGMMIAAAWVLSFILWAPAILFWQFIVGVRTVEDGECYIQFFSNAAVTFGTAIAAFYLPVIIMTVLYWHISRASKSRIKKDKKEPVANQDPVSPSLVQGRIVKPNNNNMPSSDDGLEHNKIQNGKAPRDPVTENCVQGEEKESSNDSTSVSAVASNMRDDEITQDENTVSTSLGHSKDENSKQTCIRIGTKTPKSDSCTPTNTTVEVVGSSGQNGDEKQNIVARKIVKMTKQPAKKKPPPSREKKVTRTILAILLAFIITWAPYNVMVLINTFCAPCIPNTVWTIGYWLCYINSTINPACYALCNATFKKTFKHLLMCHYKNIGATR

[2] = target: T2, Muscarinic acetylcholine receptor M3 (Homo sapiens, UniProt P20309); assay: In vitro affinity for muscarinic M3 receptor.
Target sequence in this assay (P20309 whole entry): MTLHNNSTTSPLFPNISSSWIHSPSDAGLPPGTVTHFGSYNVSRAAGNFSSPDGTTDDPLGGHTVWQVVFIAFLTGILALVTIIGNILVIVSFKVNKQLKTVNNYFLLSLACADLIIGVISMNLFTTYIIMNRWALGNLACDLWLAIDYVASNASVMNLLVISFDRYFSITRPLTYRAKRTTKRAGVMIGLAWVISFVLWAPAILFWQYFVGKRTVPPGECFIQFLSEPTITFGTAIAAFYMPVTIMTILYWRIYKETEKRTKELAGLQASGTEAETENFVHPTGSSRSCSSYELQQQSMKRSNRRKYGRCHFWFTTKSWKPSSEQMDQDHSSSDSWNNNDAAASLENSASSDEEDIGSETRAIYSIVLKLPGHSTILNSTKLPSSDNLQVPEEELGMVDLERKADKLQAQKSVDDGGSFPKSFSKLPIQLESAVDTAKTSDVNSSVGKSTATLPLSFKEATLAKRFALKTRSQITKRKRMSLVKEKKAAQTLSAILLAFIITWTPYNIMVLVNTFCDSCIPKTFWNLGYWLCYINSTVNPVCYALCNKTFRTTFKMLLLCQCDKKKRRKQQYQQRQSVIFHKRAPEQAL

[3] = target: T3, Muscarinic acetylcholine receptor M2 (Homo sapiens) (UniProt P08172); assay: Displacement of [3H]N-methylscopolamine from membrane preparation from CHO-K1 cells for Muscarinic acetylcholine receptor M2; value given as 20-50%; type: cell membranes; settings: concentration not given here
T3 sequence (whole entry): T1 sequence (P08172 whole entry)

[4] = target: T2, Muscarinic acetylcholine receptor M3; assay: Displacement of [3H]N-methylscopolamine from membrane preparation from CHO-K1 cells for Muscarinic acetylcholine receptor M3; value given as 20-50%; type: cell membranes; settings: concentration not given here
Target sequence in this assay (P20309 whole entry, looked up): as the sequence (P20309 whole entry) above

[5] = target: T2, Muscarinic acetylcholine receptor M3; assay: Displacement of [3H]N-methylscopolamine from membrane preparation from CHO-K1 cells for Muscarinic acetylcholine receptor M3; type: cell membranes; settings: concentration not given here
Target sequence in this assay (P20309 whole entry, looked up): as the sequence (P20309 whole entry) above

[6] = target: T3, Muscarinic acetylcholine receptor M2 (Homo sapiens); assay: Displacement of [3H]N-methylscopolamine from membrane preparation from CHO-K1 cells for Muscarinic acetylcholine receptor M2; type: cell membranes; settings: concentration not given here

O=C(c1ccccc1)N(Cc1ccccc1)C1CCN(Cc2ccccc2)CC1
Ki [1]: 631 nM
Ki [2]: 158 nM

O=C(c1ccccc1)N(C1CCC1)C1CCN(Cc2ccccc2)CC1
inhibition [3]: 20%
inhibition [4]: 20%

O=C(c1cccs1)N(C1CCC1)C1CCN(Cc2ccccc2)CC1
inhibition [5]: < 20%
inhibition [6]: < 20%
